Patent US20040106545A1, “Compounds and methods for modulating cell adhesion” (priority 1996, published 2004)
Entries after “also recorded” stand apart in the source; their conditions may differ. Read-outs that look alike come from different tables or passages of the source. Positions of bridges follow the written chain, without caps; N, C: chain ends. Residues, ends and D or L forms follow the SMILES beside them. *: point of attachment. Ms = CS(=O)(=O)*

Experiments:
[1] = biological target: L1 (Homo sapiens, UniProt P32004); test: Neurite outgrowth of rat cerebellar neurons on L1 expressing 3T3 monolayers (Example 15); type: cell-based; design: expressed in transfected cells; rat cerebellar neurons on top; settings: for inhibition at 125 µg/mL: 125 μg/ml, read-out: % Inhibition of L1 Response; for effect on L1 stimulated neurite outgrowth (in words): concentrations that inhibited the N-cadherin response (100 μg/mL in FIG. 24)
L1, sequence (P32004 20-1257): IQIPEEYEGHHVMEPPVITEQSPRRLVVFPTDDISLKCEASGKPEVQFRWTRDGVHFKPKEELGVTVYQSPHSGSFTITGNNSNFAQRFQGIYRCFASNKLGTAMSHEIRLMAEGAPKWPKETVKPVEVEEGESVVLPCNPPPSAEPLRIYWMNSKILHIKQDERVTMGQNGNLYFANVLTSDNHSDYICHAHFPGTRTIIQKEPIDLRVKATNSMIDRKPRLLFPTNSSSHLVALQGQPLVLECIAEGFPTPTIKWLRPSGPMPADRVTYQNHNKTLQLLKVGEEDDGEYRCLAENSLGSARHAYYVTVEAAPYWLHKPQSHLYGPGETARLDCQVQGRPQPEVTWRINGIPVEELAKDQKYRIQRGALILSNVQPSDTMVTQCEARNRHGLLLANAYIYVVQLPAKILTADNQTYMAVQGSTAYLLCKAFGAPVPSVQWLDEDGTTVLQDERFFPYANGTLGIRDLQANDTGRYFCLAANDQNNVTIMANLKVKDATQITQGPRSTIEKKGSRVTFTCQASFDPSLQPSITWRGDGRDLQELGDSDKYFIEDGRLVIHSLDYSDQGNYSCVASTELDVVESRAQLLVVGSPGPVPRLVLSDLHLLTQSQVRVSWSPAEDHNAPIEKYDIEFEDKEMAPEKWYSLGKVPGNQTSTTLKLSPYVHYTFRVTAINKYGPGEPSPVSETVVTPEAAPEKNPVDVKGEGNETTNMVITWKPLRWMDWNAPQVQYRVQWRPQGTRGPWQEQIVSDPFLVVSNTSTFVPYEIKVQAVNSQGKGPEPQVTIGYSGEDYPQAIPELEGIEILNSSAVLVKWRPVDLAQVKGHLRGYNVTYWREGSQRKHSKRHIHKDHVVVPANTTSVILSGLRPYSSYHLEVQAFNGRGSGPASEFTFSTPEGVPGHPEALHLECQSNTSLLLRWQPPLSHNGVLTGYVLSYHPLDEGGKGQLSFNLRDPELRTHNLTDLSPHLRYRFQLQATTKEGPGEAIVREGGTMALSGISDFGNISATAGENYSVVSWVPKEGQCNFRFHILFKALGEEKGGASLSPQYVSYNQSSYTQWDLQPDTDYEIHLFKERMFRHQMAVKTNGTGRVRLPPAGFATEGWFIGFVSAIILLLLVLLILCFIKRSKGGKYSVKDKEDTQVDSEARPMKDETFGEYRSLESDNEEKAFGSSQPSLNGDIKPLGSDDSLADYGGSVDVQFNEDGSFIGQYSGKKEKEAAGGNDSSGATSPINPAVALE
Experimental: (§1) Cell culture and neurite outgrowth assays. Co-cultures of cerebellar neurons on monolayers of control 3T3 cells and monolayers of transfected 3T3 cells that express physiological levels of chick N-cadherin or human L1 were established as previously described (Williams et al., Neuron 13:583-594, 1994). In brief, 80,000 3T3 cells (control and transfected) were plated into individual chambers of an eight-chamber tissue culture slide coated with polylysine and fibronectin and cultured in DMEM/10% FCS. After 24 hours, when confluent monolayers had formed, the medium was removed and 3000 cerebellar neurons isolated from post-natal day 2-3 rats were plated into each well in SATO media (Doherty et al., Nature 343:464-466, 1990) supplemented with 2% FCS. All of the test peptides were added immediately before the neurons as a 2× stock prepared in SATO/2% FCS. The co-cultures were maintained for 16-18 hours, at which time they were fixed and immunostained for GAP-43 which is present only in the neurons and delineates the neuritic processes. The mean length of the longest neurite per cell was measured for 150-200 neurons sampled in replicate cultures as previously described (Williams et al., Neuron 13:583-594, 1994). […] Dose-response curves were evaluated and the EC50 values determined.
Other cell adhesion molecules, such as L1, can stimulate neurite outgrowth, and this response shares the same downstream signaling steps as the N-cadherin response. […] As previously reported, L1 stimulated neurite outgrowth from cerebellar neurons.

[2] = biological target: T1, chick N-cadherin (Gallus gallus, UniProt P10288); test: Neurite outgrowth of rat cerebellar neurons on N-cadherin expressing 3T3 monolayers (Example 15); type: cell-based; settings: for inhibitory activity on N-cadherin dependent neurite outgrowth, structure/activity statements: Tables 8 and 9; for inhibition at 250 µg/mL: 16-18 hours, read-out: % Inhibition of N-Cadherin Dependent Neurite Outgrowth
T1 construct: expressed in transfected cells; host or cells: 3T3 fibroblasts (monolayer); rat post-natal day 2-3 cerebellar neurons plated on top
T1 sequence (P10288 165-912): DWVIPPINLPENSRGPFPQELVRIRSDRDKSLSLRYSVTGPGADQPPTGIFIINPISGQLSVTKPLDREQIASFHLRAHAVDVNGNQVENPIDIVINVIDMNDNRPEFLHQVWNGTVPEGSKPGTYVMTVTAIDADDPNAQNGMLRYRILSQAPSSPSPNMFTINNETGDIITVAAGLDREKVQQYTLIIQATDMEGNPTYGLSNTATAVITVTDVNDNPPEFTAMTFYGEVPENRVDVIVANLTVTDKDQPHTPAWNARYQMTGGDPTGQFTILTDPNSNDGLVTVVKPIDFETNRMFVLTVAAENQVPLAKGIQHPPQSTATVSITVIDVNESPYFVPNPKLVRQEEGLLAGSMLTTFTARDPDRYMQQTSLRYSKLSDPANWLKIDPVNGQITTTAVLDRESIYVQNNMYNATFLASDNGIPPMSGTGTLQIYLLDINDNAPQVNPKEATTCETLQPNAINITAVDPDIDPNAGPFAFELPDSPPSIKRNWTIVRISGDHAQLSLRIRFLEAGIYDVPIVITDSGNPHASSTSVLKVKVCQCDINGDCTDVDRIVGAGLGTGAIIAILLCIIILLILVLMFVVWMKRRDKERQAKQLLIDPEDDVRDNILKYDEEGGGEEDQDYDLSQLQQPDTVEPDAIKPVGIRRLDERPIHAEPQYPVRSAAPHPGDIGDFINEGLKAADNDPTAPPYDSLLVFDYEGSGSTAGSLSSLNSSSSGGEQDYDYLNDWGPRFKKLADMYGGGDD
Experimental: as §1

[3] = tested on: Madin Darby canine kidney (MDCK) cells; type: cell-based; settings: for EC50, decrease of electrical resistance across MDCK cell monolayer: 18 hours
Experimental: Yet another assay evaluates the effect of a modulating agent on the electrical resistance across a monolayer of cells. For example, Madin Darby canine kidney (MDCK) cells can be exposed to the modulating agent dissolved in medium (e.g., at a final concentration of 0.5 mg/ml for a period of 24 hours). The effect on electrical resistance can be measured using standard techniques. This assay evaluates the effect of a modulating agent on tight junction formation in epithelial cells. In general, the presence of 500 μg/mL modulating agent should result in a statistically significant decrease in electrical resistance after 24 hours.
Madin Darby canine kidney (MDCK) cells were plated in Millicells (Millipore, Bedford, Mass.), at a density of 300,000 cells per Millicell, and cultured in Dulbecco's Modified Eagle Medium (DMEM; Sigma, St. Louis, Mo.) containing 5% fetal calf serum (Sigma, St. Louis, Mo.) until monolayers formed. Monolayers were exposed to the modulating agent dissolved in medium. The electrical resistance was measured using the EVOM device (World Precision Instruments, Sarasota, Fla.). At the time of measurement, fresh medium, with or without the modulating agent, may be added to the Millicells.

[4] = tested on: Madin Darby canine kidney (MDCK) cells; type: cell-based; settings: 18 h
[5] = biological target: T2, N-cadherin (Gallus gallus, UniProt P10288); test: Neurite outgrowth inhibition, rat neurons (Example 21); type: cell-based; settings: read-out: % Inhibition of neurite outgrowth; 250 μg/mL
T2 construct: expressed in transfected cells; host or cells: 3T3 fibroblasts (monolayer)
T2 sequence (P10288 165-912): T1 sequence (P10288 165-912)

[6] = tested on: PC-3; test: Cytotoxicity, MTT assay, PC-3; type: cell-based, human
Experimental: (§2) N—Ac-CHAVC-NH2 (SEQ ID NO:10) and the control peptide N—Ac-CHGVC-NH2 (SEQ ID NO:11) were evaluated for possible cytotoxic effects on human microvascular endothelial (HMVEC; Clonetics), human umbilical vein endothelial (HUVEC; ATCC #CRL-1730), IAFp2 (human fibroblast cell line; Institute Armand-Frapier, Montreal, Quebec), WI-38 (human fibroblast cell line; ATCC #CCL-75), MDA-MB231 (human breast cancer cell line; ATCC #HTB-26), and PC-3 (human prostate cancer cell line; ATCC #CRL-1435) cells utilizing the MTT assay (Plumb et al., Cancer Res. 49:4435-4440, 1989). Neither of the peptides was cytotoxic at concentrations up to and including 100 μM. Similarly, neither of the peptides was capable of inhibiting the proliferation of the above cell lines at concentrations up to 100 μM, as judged by ^3H-thymidine incorporation assays.

[7] = tested on: MDA-MB231; test: Cytotoxicity, MTT assay, MDA-MB231; type: cell-based, human
Experimental: as §2

[8] = tested on: WI-38; type: cell-based, human; settings: 3 h
Experimental: as §2

[9] = tested on: HUVEC; type: cell-based, human; settings: 3 h
Experimental: as §2

[10] = tested on: HMVEC; type: cell-based, human; settings: 3 h
Experimental: as §2

[11] = tested on: IAFp2; type: cell-based, human; settings: 3 h
Experimental: as §2

[12] = tested on: MDA-MB231; type: cell-based, human; settings: 3 h
Experimental: as §2

[13] = tested on: PC-3; type: cell-based, human; settings: 3 h
Experimental: as §2

CC[C@H](C)[C@@H]1NC(=O)[C@H](CC(=O)O)NC(=O)[C@H](C(C)C)NC(=O)[C@H](C)NC(=O)[C@H](Cc2c[nH]cn2)NC(=O)[C@@H](NC(C)=O)CSSC[C@@H](C(N)=O)NC(=O)[C@H](CC(N)=O)NC1=O (Ac-CHAVDINC-NH2; disulfide 1-8)
inhibition at 125 µg/mL [1]: 1.7 ± 7.3% | effect on L1 stimulated neurite outgrowth (in words) ([1]; listed as N—Ac-CHAVDINC-NH2): did not interfere with the ability of neurons to extend neurites over 3T3 cells expressing L1 | inhibitory activity on N-cadherin dependent neurite outgrowth, structure/activity statements ([2]; listed as N—Ac-CHAVDINC-NH2): only a slight loss in activity; also recorded: potent inhibitors | effect on electrical resistance across MDCK cells (in words) [3]: complete abrogation of E-cadherin specific activity | EC50, decrease of electrical resistance across MDCK cell monolayer [3]: INACTIVE

CC(C)[C@@H]1NC(=O)[C@H](C)NC(=O)[C@H](Cc2c[nH]cn2)NC(=O)[C@@H](NS(C)(=O)=O)CSSC[C@@H](C(=O)N[C@@H](Cc2ccc(O)cc2)C(N)=O)NC1=O [CH3—SO2—NH—CHAVCY—NH2] (Ms-CHAVCY-NH2; disulfide 1-5)
EC50 [4]: 140 µM

CC(C)[C@@H]1NC(=O)[C@H](C)NC(=O)[C@H](Cc2c[nH]cn2)NC(=O)[C@@H](NC=O)CSSC[C@@H](C(N)=O)NC1=O [H—C(O)—NH—CHAVC—NH2]
EC50 [4]: 560 µM | effect on electrical resistance across MDCK cells (in words) [3]: decrease in potency

CC(=O)N[C@H]1CSSC[C@@H](C(N)=O)NC(=O)[C@H](C(C)C)NC(=O)[C@H](C)NC(=O)[C@H](Cc2c[nH]cn2)NC(=O)[C@H](CO)NC(=O)[C@H](Cc2ccccc2)NC1=O [N—Ac—CFSHAVC—NH2] (Ac-CFSHAVC-NH2; disulfide 1-7)
EC50 [4]: 22 µM

CC(=O)N[C@H]1CSSC[C@@H](C(=O)N[C@@H](CC(=O)O)C(N)=O)NC(=O)[C@H](C(C)C)NC(=O)[C@H](C)NC(=O)[C@H](Cc2c[nH]cn2)NC1=O [N—Ac—CHAVCD—NH2] (Ac-CHAVCD-NH2; disulfide 1-5)
EC50 [4]: 470 µM | inhibition at 250 µg/mL ([2]; 250 μg/mL): 3.3 ± 10%

CC(=O)N[C@H]1CSSC[C@@H](C(=O)N[C@@H](CO)C(=O)N[C@@H](CO)C(N)=O)NC(=O)[C@H](C(C)C)NC(=O)[C@H](C)NC(=O)[C@H](Cc2c[nH]cn2)NC1=O [N—Ac—CHAVCSS—NH2] (Ac-CHAVCSS-NH2; disulfide 1-5)
EC50 [4]: 430 µM | inhibition at 250 µg/mL ([2]; 250 μg/mL): 37.8 ± 4%

CC(=O)N[C@H]1CSSC[C@@H](C(=O)N[C@@H](CO)C(N)=O)NC(=O)[C@H](C(C)C)NC(=O)[C@H](C)NC(=O)[C@H](Cc2c[nH]cn2)NC1=O [N—Ac—CHAVCS—NH2] (Ac-CHAVCS-NH2; disulfide 1-5)
EC50 [4]: 490 µM | inhibition at 250 µg/mL ([2]; 250 μg/mL): 6.9 ± 5.4%

CC(=O)N[C@H]1CSSC[C@@H](C(=O)N[C@H](C(N)=O)[C@@H](C)O)NC(=O)[C@H](C(C)C)NC(=O)[C@H](C)NC(=O)[C@H](Cc2c[nH]cn2)NC1=O [N—Ac—CHAVCT—NH2] (Ac-CHAVCT-NH2; disulfide 1-5)
EC50 [4]: 480 µM | inhibition at 250 µg/mL ([2]; 250 μg/mL): 23.7 ± 6.6%

CC(=O)N[C@H]1CSSC[C@@H](C(N)=O)NC(=O)[C@H](CC(=O)O)NC(=O)[C@H](C(C)C)NC(=O)[C@H](C)NC(=O)[C@H](Cc2c[nH]cn2)NC1=O [N—Ac—CHAVDC—NH2] (Ac-CHAVDC-NH2; disulfide 1-6)
inhibition at 250 µg/mL [5]: 88% | inhibition at 125 µg/mL [1]: 9.6 ± 3.3% | effect on L1 stimulated neurite outgrowth (in words) [1]: did not interfere with the ability of neurons to extend neurites over 3T3 cells expressing L1 | inhibition of N-cadherin dependent neurite outgrowth (in words) ([2]; 250 μg/mL): potent inhibitors of neurite outgrowth | inhibitory activity on N-cadherin dependent neurite outgrowth, structure/activity statements [2]: dramatically increased the inhibitory activity | effect on electrical resistance across MDCK cells (in words) [3]: complete abrogation of E-cadherin specific activity | EC50, decrease of electrical resistance across MDCK cell monolayer [3]: INACTIVE

CC(=O)N[C@H]1CSSC[C@@H](C(N)=O)NC(=O)[C@H](C(C)C)NC(=O)[C@H](C)NC(=O)[C@H](Cc2c[nH]cn2)NC(=O)[C@H](CO)NC1=O [N—Ac—CSHAVC—NH2, N-Ac-Cys-Ser-His-Ala-Val-Cys-NH2] (Ac-CSHAVC-NH2; disulfide 1-6)
EC50 [4]: 20 µM | IC50 [6]: > 100 µM | IC50 [7]: > 100 µM | inhibition at 250 µg/mL [5]: 0% | reduction in inhibitory activity on flanking HAV with E-cadherin amino acids ([2]; 250 μg/mL (Table 8)): complete | IC50 [8]: > 100 µM | IC50 [9]: > 100 µM | IC50 [10]: > 100 µM | IC50 [11]: > 100 µM | IC50 [12]: > 100 µM | IC50 [13]: > 100 µM

CC(=O)N[C@@H](CO)C(=O)N[C@H]1CSSC[C@@H](C(N)=O)NC(=O)[C@H](C(C)C)NC(=O)[C@H](C)NC(=O)[C@H](Cc2c[nH]cn2)NC1=O [N—Ac—S—CHAVC—NH2] (Ac-SCHAVC-NH2; disulfide 2-6)
EC50 [4]: 490 µM
